Measurements published in patent publication US10213429B2, “Imidazo-pyrazinyl derivatives useful as soluble guanylate cyclase activators” (Merck Sharp & Dohme Corp., priority 2015, dated 2019).

Target: T1, sGC α1/β1 heterodimer (Homo sapiens, UniProt Q02108+Q02153)
T1 construct: expressed in transfected cells; host or cells: CHO-K1 (clone #7, CHO-K1/sGC)
T1 sequence (Q02108 1-690): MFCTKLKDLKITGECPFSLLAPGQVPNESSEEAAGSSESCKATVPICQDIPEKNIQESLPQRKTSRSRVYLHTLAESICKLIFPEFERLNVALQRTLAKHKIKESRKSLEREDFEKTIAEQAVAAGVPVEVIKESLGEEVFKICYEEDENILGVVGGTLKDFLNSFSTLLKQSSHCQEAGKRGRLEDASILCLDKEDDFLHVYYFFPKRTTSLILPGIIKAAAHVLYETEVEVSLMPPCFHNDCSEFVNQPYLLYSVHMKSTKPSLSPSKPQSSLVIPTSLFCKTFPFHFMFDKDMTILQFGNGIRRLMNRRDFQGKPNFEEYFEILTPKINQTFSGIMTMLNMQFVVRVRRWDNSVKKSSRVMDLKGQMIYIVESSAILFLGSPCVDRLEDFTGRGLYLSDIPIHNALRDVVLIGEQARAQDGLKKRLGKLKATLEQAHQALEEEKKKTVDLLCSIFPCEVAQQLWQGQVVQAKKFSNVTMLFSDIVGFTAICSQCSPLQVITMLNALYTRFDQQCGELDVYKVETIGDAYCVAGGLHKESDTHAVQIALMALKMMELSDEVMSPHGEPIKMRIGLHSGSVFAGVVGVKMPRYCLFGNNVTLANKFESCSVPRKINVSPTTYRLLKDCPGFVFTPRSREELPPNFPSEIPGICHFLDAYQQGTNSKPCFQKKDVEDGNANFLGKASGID
T1 sequence (Q02153 1-619): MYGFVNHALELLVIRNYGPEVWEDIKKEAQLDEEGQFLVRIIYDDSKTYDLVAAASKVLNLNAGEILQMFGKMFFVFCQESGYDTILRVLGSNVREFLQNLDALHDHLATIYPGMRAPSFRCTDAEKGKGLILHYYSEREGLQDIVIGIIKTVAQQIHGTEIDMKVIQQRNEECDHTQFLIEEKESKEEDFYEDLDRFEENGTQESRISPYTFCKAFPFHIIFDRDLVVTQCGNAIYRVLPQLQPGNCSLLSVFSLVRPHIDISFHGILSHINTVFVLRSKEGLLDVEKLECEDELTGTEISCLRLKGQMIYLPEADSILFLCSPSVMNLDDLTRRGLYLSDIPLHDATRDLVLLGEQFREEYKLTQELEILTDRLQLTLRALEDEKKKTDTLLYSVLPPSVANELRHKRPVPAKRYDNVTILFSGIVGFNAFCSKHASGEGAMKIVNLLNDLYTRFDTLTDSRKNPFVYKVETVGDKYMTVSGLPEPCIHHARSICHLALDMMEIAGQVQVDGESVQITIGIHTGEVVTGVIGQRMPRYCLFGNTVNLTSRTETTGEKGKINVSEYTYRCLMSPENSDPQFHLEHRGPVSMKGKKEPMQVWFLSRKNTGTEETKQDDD
Assay: Cell-Based sGC Functional Assay (CASA Assay), cGMP by HTRF in CHO-K1/sGC cells
Details: for Emax: CHO-K1, percent activation relative to maximum cGMP production of Compound A (= 100%), read-out: % Act.; for EC50: cGMP production, 1 hr at 37° C., 4P fit, presence or absence of 1 μM DETA-NO not given, read-out: IP (nM) (inflection point); for % Act.: percent activation relative to maximum cGMP production of Compound A (= 100%)
Text: Biological Assay 1: Cell-Based sGC Functional Assay (CASA Assay)
sGC is a heme-containing enzyme that converts GTP to secondary messenger cGMP. Increases in cGMP levels affect several physiological processes including vasorelaxation through multiple downstream pathways. […] Heme-dependent activators (HDAs) preferentially activate sGC containing a ferrous heme group. To determine the effect of sGC activators on enzyme activity, the CASA assay was developed to monitor the generation of cGMP in a cell line that stably expresses the heterodimeric sGC protein.
A CHO-K1 cell line stably expressing the sGC α1/β1 heterodimer was generated using a standard transfection protocol. CHO-K1 cells were transfected with plasmids pIREShyghsGCα1 and pIRESneo-hsGCβ1 simultaneously using FUGENE reagent. Clones that stably express both subunits were selected with hygromycin and neomycin for ˜2 weeks. Clone #7 was chosen for the assay and was designated CHO-K1/sGC. CHO-K1/sGC cells were maintained in F-K12 medium containing 10% heat-inactivated Fetal Bovine Serum (FBS), 100 μg/mL penicillin/streptomycin, 0.5 mg/mL hygromycin and 0.25 mg/mL G418. The cells were then cryopreserved in LN2. On the day of the assay, cells were thawed and resuspended in EBSS Assay Buffer (Sigma, E3024) supplemented with 5 mM MgCl2, 10 mM HEPES (4-(2-hydroxyethyl)piperazine-1-ethanesulfonic acid) and 0.05% BSA (bovine serum albumin) (EAB) and cell density was then adjusted to 4×10^5/mL with EAB. IBMX (3-isobutyl-1-methylxanthin, 0.5 mM) was added to inhibit degradation of cGMP. Compounds were diluted from DMSO stock solutions and added to the assay at a final DMSO concentration of 2.5%. Cells were incubated with compounds in the presence and absence of 1 μM of Diethylenetriamine/nitric oxide adduct (DETA-NO; Sigma, 17018) for 1 hr at 37° C. At the end of the incubation period, the reaction was terminated and the cells were lysed with the detection reagents from Cisbio Kits. The level of intracellular cGMP was determined using an HTRF-based assay kit (CisBio, 62GM2PEC), which detects the displacement of a fluorescence labeled cGMP from its specific antibody. The cGMP produced by test compounds was directly compared to the maximum cGMP production (this value was set to equal 100% activation.) of the published sGC-HDA Compound A:
[drawing 175] (Example 1 in WO 2010/065275, published Jun. 10, 2010). The test compounds' activities were then expressed as a percentage of Compound A, the standard in every experiment. This percent activation was calculated either in the presence or absence of DETA-NO which was then plotted. IP and maximum fold induction was derived using ADA analysis software for 4P fit.
The compounds in the Examples of the instant invention had inflection points (IP) less than or equal to 10 μM and most less than or equal to about 1 μM.

Row | SMILES | Emax | EC50 | % Act.
1 | COc1nc(-c2cn3ccnc3c(CCC(F)(F)C(F)(F)F)n2)nc2c1C(C)(c1ccc(F)cc1)C(=O)N2 (stereo not shown) [Example 89A, 5-(4-Fluorophenyl)-4-methoxy-5-methyl-2-(8-(3,3,4,4,4-pentafluorobutyl)imidazo[1,2-a]pyrazin-6-yl)-5H-pyrrolo[2,3-d]pyrimidin-6(7H)-one] | 110% | 606 nM | –
2 | CCCCc1nc(-c2nc(O)c3c(n2)NC(=O)C3(C)c2ccc(F)cn2)cn2ccnc12 (stereo not shown) [Example 83B, 2-(8-butylimidazo[1,2-a]pyrazin-6-yl)-5-(5-fluoropyridin-2-yl)-4-hydroxy-5-methyl-5H-pyrrolo[2,3-d]pyrimidin-6(7H)-one] | 109% | 234 nM | –
3 | CCCCc1nc(-c2ncc3c(n2)NC(=O)C3(c2ccc(OC(F)(F)F)cc2)C2CC2)cn2ccnc12 (stereo not shown) [Example 51A, 2-(8-butylimidazo[1,2-a]pyrazin-6-yl)-5-cyclopropyl-5-(4-(trifluoromethoxy)phenyl)-5H-pyrrolo[2,3-d]pyrimidin-6(7H)-one] | 98% | 56 nM | –
4 | CCCc1nc(-c2ncc3c(n2)NC(=O)C3(C)c2ccc(Cl)cn2)cn2ccnc12 (stereo not shown) [Example 57A, 5-(5-chloropyridin-2-yl)-5-methyl-2-(8-propylimidazo[1,2-a]pyrazin-6-yl)-5H-pyrrolo[2,3-d]pyrimidin-6(7H)-one] | 90% | 981 nM | –
5 | CCCCc1nc(-c2ncc3c(n2)NC(=O)C3(C)c2ccc(F)cn2)cn2cc(C)nc12 (stereo not shown) [Example 91B, 2-(8-Butyl-2-methylimidazo[1,2-a]pyrazin-6-yl)-5-(5-fluoropyridin-2-yl)-5-methyl-5H-pyrrolo[2,3-d]pyrimidin-6(7H)-one] | 117% | 330 nM | –
6 | CC1(c2ccc(Cl)cn2)C(=O)Nc2nc(-c3cn4ccnc4c(CC4CCC4)n3)ncc21 (stereo not shown) [Example 58A, 5-(5-chloropyridin-2-yl)-2-(8-(cyclobutylmethyl)imidazo[1,2-a]pyrazin-6-yl)-5-methyl-5H-pyrrolo[2,3-d]pyrimidin-6(7H)-one] | 150% | 81 nM | –
7 | O=C1Nc2nc(-c3cn4ccnc4c(CCC(F)(F)C(F)(F)F)n3)ncc2C1(c1ccc(Cl)cn1)C1CC1 (stereo not shown) [Example 7A, 5-(5-chloropyridin-2-yl)-5-cyclopropyl-2-(8-(3,3,4,4,4-pentafluorobutyl)imidazo[1,2-a]pyrazin-6-yl)-5H-pyrrolo[2,3-d]pyrimidin-6(7H)-one] | 113% | 343 nM | –
8 | O=C1Nc2nc(-c3cn4ccnc4c(CCCC(F)(F)F)n3)nc(O)c2C1(c1ccc(Cl)cn1)C1CC1 (stereo not shown) [Example 10A, 5-(5-chloropyridin-2-yl)-5-cyclopropyl-4-hydroxy-2-(8-(4,4,4-trifluorobutyl)imidazo[1,2-a]pyrazin-6-yl)-5H-pyrrolo[2,3-d]pyrimidin-6(7H)-one] | 126% | 658 nM | –
9 | CC1(C(=O)NC2CC2)C(=O)Nc2nc(-c3cn4ccnc4c(Cc4ccc(F)cc4)n3)ncc21 (single isomer, unassigned) [Example 67B, N-Cyclopropyl-2-(8-(4-fluorobenzyl)imidazo[1,2-a]pyrazin-6-yl)-5-methyl-6-oxo-6,7-dihydro-5H-pyrrolo[2,3-d]pyrimidine-5-carboxamide] | – | 936 nM | 149%

The next lines start with the values.

Row | Emax | EC50 | % Act. | SMILES
10 | – | 226 nM | 118% | CC1(C(=O)NC2CC2)C(=O)Nc2nc(-c3cn4ccnc4c(Cc4ccccc4F)n3)ncc21 (single isomer, unassigned) [Example 69B, N-cyclopropyl-2-(8-(2-fluorobenzyl)imidazo[1,2-a]pyrazin-6-yl)-5-methyl-6-oxo-6,7-dihydro-5H-pyrrolo[2,3-d]pyrimidine-5-carboxamide]
11 | 127% | 105 nM | – | CC1(c2ccc(Cl)cc2)C(=O)Nc2nc(-c3cn4ccnc4cn3)nc(-c3ccccc3)c21 (stereo not shown) [Example 84A, 5-(4-Chlorophenyl)-2-(imidazo[1,2-a]pyrazin-6-yl)-5-methyl-4-phenyl-5H-pyrrolo[2,3-d]pyrimidin-6(7H)-one]
12 | 179% | 81 nM | – | CCCCc1nc(-c2nc3c(c(C4CC4)n2)C(C)(c2ccc(F)cn2)C(=O)N3)cn2ccnc12 (stereo not shown) [Example 72B, 2-(8-butylimidazo[1,2-a]pyrazin-6-yl)-4-cyclopropyl-5-(5-fluoropyridin-2-yl)-5-methyl-5H-pyrrolo[2,3-d]pyrimidin-6(7H)-one]
13 | 100% | 38 nM | – | COCCOc1nc(-c2cn3ccnc3c(CCC(F)(F)C(F)(F)F)n2)nc2c1C(C)(c1ccc(F)cc1)C(=O)N2 (stereo not shown) [Example 88A, 5-(4-Fluorophenyl)-4-(2-methoxyethoxy)-5-methyl-2-(8-(3,3,4,4,4-pentafluorobutyl)imidazo[1,2-a]pyrazin-6-yl)-5H-pyrrolo[2,3-d]pyrimidin-6(7H)-one]
14 | 128% | 107 nM | – | CCCCc1nc(-c2nc(O)c3c(n2)NC(=O)C3(c2ccc(F)c(F)c2)C2CC2)cn2ccnc12 (stereo not shown) [Example 19A, 2-(8-butylimidazo[1,2-a]pyrazin-6-yl)-5-cyclopropyl-5-(3,4-difluorophenyl)-4-hydroxy-5H-pyrrolo[2,3-d]pyrimidin-6(7H)-one]
15 | 125% | 220 nM | – | O=C1Nc2nc(-c3cn4ccnc4c(CCC(F)(F)C(F)(F)F)n3)ncc2C1(c1ccc(F)cn1)C1CC1 (stereo not shown) [Example 53A, 5-cyclopropyl-5-(5-fluoropyridin-2-yl)-2-(8-(3,3,4,4,4-pentafluorobutyl)imidazo[1,2-a]pyrazin-6-yl)-5H-pyrrolo[2,3-d]pyrimidin-6(7H)-one]
16 | 104% | 401 nM | – | CC1(c2ccc(Cl)cc2)C(=O)Nc2nc(-c3cn4ccnc4c(CCC(F)(F)F)n3)ncc21 (stereo not shown) [Example 61A, 5-(4-chlorophenyl)-5-methyl-2-(8-(3,3,3-trifluoropropyl)imidazo[1,2-a]pyrazin-6-yl)-5H-pyrrolo[2,3-d]pyrimidin-6(7H)-one]
17 | 153% | 240 nM | – | CCCCc1nc(-c2nc(O)c3c(n2)NC(=O)C3(c2ccc(Cl)cn2)C2CC2)cn2ccnc12 (stereo not shown) [Example 25A, 2-(8-butylimidazo[1,2-a]pyrazin-6-yl)-5-(5-chloropyridin-2-yl)-5-cyclopropyl-4-hydroxy-5H-pyrrolo[2,3-d]pyrimidin-6(7H)-one]
